Experiment [1] concerns NMD. As to the kind of experiment: NMD reporter mRNA levels (β-Gl Ter, GPx1 Ter) by RT-qPCR in HeLa cells exposed to NMDI-1. Format: cell-based, human. On the procedure:
Norm encodes a PTCfree version of GPx1 mRNA, whereas Ter encodes mRNA harboring a PTC at codon 46. Cells were re-plated 16 h after transfection at equivalent densities and exposed 24 h later to the indicated concentration of NMDI-1 or, as a positive control for NMD inhibition, cycloheximide (CHX). The levels of β-Gl reporter mRNAs were normalized to the level of the MUP reference mRNA, and the normalized levels of β-Gl Ter mRNA are presented as a percentage of the normalized level of β-Gl Norm mRNA. FIG. 16b is essentially as in a, except GPx1Ter mRNA was analyzed. FIG. 16c is essentially as in b, except MCF7 cells were used. FIG. 16d is essentially as in b, except MCF7 cells were used.
Cells were homogenized, and RNA was purified using RNeasy mini kits (Qiagen). To ensure linearity of both reverse transcription (RT) and qPCR analyses, 17 standard concentrations were constructed using two-fold serial dilutions of total-cell RNA, beginning with 2 μg. Experimental sample input was 200 ng of RNA. RT was conducted using Superscript III (Invitrogen) according to manufacturer's directions and 100 ng of random hexamer (Invitrogen) in a 20 μl reaction volume. Thermal cycling was as follows: 25° C. for 5 min; 42° C. for 60 min; 50° C. for 60 min; and 75° C. for 10 min. Reactions were diluted to a final volume of 80 μl with water and used for qPCR.
qPCR was conducted using FAST SYBR green master mix (ABI; Foster City, Calif.) according to manufacturer's directions. Cycling was done using a 7500 FAST Real Time machine (ABI) with default conditions, and thermal denaturation curves were generated for each run. Primer sequences were as follows, with mRNA primers sets containing at least one primer spanning an exon-exon junction, and pre-mRNA primer sets containing at least one primer that hybridizes to intronic sequences. Primers for Gl mRNA, GPx1 mRNA and MUP mRNA were described in Kurosaki et al.
Therefore, a small-molecule inhibitor of NMD, NMDI-1 (FIG. 8c), that interferes with the interaction between UPF1 and SMG5 was utilized. Application of NMDI-1 and the consequential attenuation of NMD may more fully replicate the complete inhibition of NMD mediated by the UPF1 CP generation explored here as well as UPF1 dephosphorylation and the generation of additional UPF1 CPs seen with doxorubicin (FIG. 1c).
Background: Real-time PCR tracks product formation cycle by cycle.

For experiment [2], the system named is NMD. The experiment is described as follows: NMD reporter mRNA levels by RT-qPCR in MCF7 cells exposed to NMDI-1. Format: cell-based, human.
A further experiment deals with HeLa cells. Further details: reduction in cell viability relative to doxorubicin alone: dose or concentration left out as unconfirmed.
Where [3] appears, read: NMDI-1 at a concentration of 10.

Structures are written as SMILES. Read-outs that look alike come from different tables or passages of the source.

As to `Cc1c2ccnc(Cl)c2c(C)c2c1[nH]c1ncccc12` [NMDI-1], the “inhibition of NMD in HeLa cells” value in the experiment with NMD [1] is “effective in HeLa cells”; in the experiment on NMD [1] (listed as NMD-1) it was “potent inhibitor of NMD”. In addition, the “raising the level of PTC-bearing glutathione peroxidase 1 (GPx1) mRNA” value in the experiment on NMD [1] (setting [3]) is on record as around 1.6 fold. Further, the “raising the level of β-Gl Ter mRNA” value in the experiment with NMD [1] (setting [3]) was around 3.8 fold. Besides, in the experiment with NMD [2], the “effect on NMD in MCF7 cells” value is “no effect”. The “cell viability at sub-lethal doxorubicin” value with HeLa cells (0.5 μM doxorubicin, doxorubicin alone, co-treatment or pre-treatment with NMDI-1) was “none of the treatments significantly affected viability”. The “reduction in cell viability relative to doxorubicin alone” value in the experiment on HeLa cells (NMDI-1 pulse 8 h, washed, then doxorubicin 16 h) is around 2.5 fold. Further, the “cell viability relative to doxorubicin treatment alone” value with HeLa cells (continuous co-incubation 16 h with doxorubicin and NMDI-1) is listed as “statistically significant decreases in cell viability”.
